Key:
[1] = tested on: Musca domestica; experiment: Musca domestica test; type: in vivo; conditions: application rate 100 ppm; adult houseflies; after 2 days
In short: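 Water-diluted DMSO stock of compound, mixed onto a sugar-treated sponge, served as the sole exposure route for ten adult houseflies. Kill percentage scored at 2 days.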

[2] = tested on: Lucilia cuprina; experiment: Lucilia cuprina test; type: in vivo; conditions: application rate 100 ppm; L1 larvae; after 2 days
In short: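 Mortality (%) of first-instar blowfly larvae, about 20 per vessel, recorded 2 days after exposure to compound-treated minced horsemeat. Compound dissolved in dimethyl sulphoxide, then water-diluted to the desired concentration.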

[3] = tested on: Myzus persicae; experiment: Myzus persicae - spray test; type: in vivo; conditions: Chinese cabbage leaf discs, after 6 days
In short: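 Mortality of the green peach aphid, as % killed, was read 6 days after spraying infested Brassica pekinensis leaf discs. Compound formulated in acetone/dimethylformamide and made up with emulsifier-containing (1000 ppm) water.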

[4] = tested on: Tetranychus urticae; experiment: Tetranychus urticae - spray test, OP-resistant; type: in vivo; conditions: bean leaf discs, after 6 days
In short: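 Mortality (%) read on day 6 after spraying Phaseolus vulgaris leaf discs carrying all mite stages with formulations at the desired concentration. Formulation: active ingredient in acetone plus dimethylformamide, made up with emulsifier-containing water (1000 ppm alkylaryl polyglycol ether).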

[5] = tested on: Boophilus microplus; experiment: Boophilus microplus - injection test; type: in vivo; conditions: application rate 20 μg/animal; injection into engorged adult female ticks; after 7 days
In short: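 Five engorged adult female cattle ticks each received a 1 μl abdominal injection of compound solution in dimethyl sulphoxide. Fertile egg laying was assessed at 7 days, with doubtful eggs incubated about 42 days until hatch. 0% efficacy means all eggs fertile.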

[6] = tested on: Rhipicephalus sanguineus; experiment: Rhipicephalus sanguineus - in vitro contact tests with adult brown dog ticks; type: in vivo; conditions: application rate 5 μg/cm2; after 48 h; ticks dead or moribund
Protocol: For the coating of the test tubes, 9 mg of active ingredient are first dissolved in 1 ml of acetone p.a. and then diluted to the desired concentration with acetone p.a. 250 μl of the solution are distributed homogeneously on the inner walls and base of a 25 ml test tube by turning and rocking on an orbital shaker (rocking rotation at 30 rpm for 2 h). With 900 ppm active ingredient solution and internal surface 44.7 cm^2, given homogeneous distribution, an area-based dose of 5 μg/cm^2 is achieved.
After the solvent has evaporated off, the tubes are populated with 5-10 adult dog ticks (Rhipicephalus sanguineus), sealed with a perforated plastic lid and incubated in a horizontal position in the dark at room temperature and ambient humidity. After 48 h, efficacy is determined. To this end, the ticks are knocked to the floor of the tube and incubated on a hotplate at 45-50° C. for not more than 5 min. Ticks which remain motionless on the floor or move in such an uncoordinated manner that they are unable to deliberately avoid the heat by climbing upwards are considered to be dead or moribund.
An efficacy of 100% means that all the ticks were dead or moribund. 0% efficacy means that none of the ticks had been harmed.

[7] = logP determination by HPLC on a reversed-phase column (C18); type: physicochemical; conditions: for logP^a): HPLC-MS method a); for log P: HPLC-MS; for logP: HPLC, C18 reversed phase, acetonitrile/water with formic acid, EEC Directive 79/831 Annex V.A8
[8] = tested on: Phaedon cochleariae; experiment: Phaedon cochleariae - spray test; type: in vivo; conditions: larvae on Chinese cabbage leaf discs, after 7 days
In short: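 Mortality of mustard beetle larvae was scored as % at day 7 on Brassica pekinensis leaf discs. Discs had been treated by spraying at the desired concentration, using an acetone/dimethylformamide solution diluted in water with 1000 ppm alkylaryl polyglycol ether, and dried before larvae were added.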

[9] = tested on: Spodoptera frugiperda; experiment: Spodoptera frugiperda - spray test; type: in vivo; conditions: caterpillars on maize leaf discs, after 7 days
In short: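 Percent mortality of Spodoptera frugiperda caterpillars scored 7 days after placing them on dried maize leaf discs sprayed at the desired concentration. Spray formulation: compound dissolved in acetone/dimethylformamide, made up with water containing 1000 ppm emulsifier.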

[10] = tested on: Ctenocephalides felis; experiment: Ctenocephalides felis - oral test; type: in vivo; conditions: application rate 100 ppm in citrated cattle blood; after 2 days
In short: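 Roughly 20 unfed adult C. felis imbibe compound-dosed citrated cattle blood (DMSO formulation) across parafilm from a cylinder above their gauze chamber; percentage mortality recorded at day 2.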

[11] = tested on: Ctenocephalides felis; experiment: Ctenocephalides felis - in vitro contact tests with adult cat fleas; type: in vivo; conditions: application rate 5 μg/cm2 (=500 g/ha); after 48 h; fleas dead or moribund
In short: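 Efficacy, as percentage of fleas dead or moribund, was scored at 48 h by knocking fleas to the tube base. Exposure was by contact with a dried acetone film of compound at 5 μg/cm^2 area dose; 5–10 adults per tube, room temperature, ambient humidity.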

[12] = tested on: Boophilus microplus Parkhurst strain, SP-resistant; experiment: Boophilus microplus - dip test; type: in vivo; conditions: application rate 100 ppm; dip of engorged adult female ticks; after 7 days
Protocol: Test animals: cattle ticks (Boophilus microplus) Parkhurst strain, SP-resistant
Solvent: dimethyl sulphoxide
10 mg of active ingredient are dissolved in 0.5 ml of dimethyl sulphoxide. For the purpose of producing a suitable formulation, the active ingredient solution is diluted with water to the concentration desired in each case.
This active ingredient formulation is pipetted into tubes. 8-10 adult engorged female cattle ticks (Boophilus microplus) are transferred into a further tube with holes. The tube is immersed into the active ingredient formulation, and all the ticks are completely wetted. After the liquid has run out, the ticks are transferred on filter discs into plastic dishes and stored in a climate-controlled room.
Efficacy is assessed after 7 days by laying of fertile eggs. Eggs which are not visibly fertile are stored in a climate-controlled cabinet until the larvae hatch after about 42 days. An efficacy of 100% means that none of the ticks has laid any fertile eggs; 0% means that all the eggs are fertile.

[13] = reversed-phase column (C18), Table I-T3

| SMILES | efficacy (kill) [1] [%] | efficacy (kill) [2] [%] | efficacy ([3]; application rate 100 g/ha) [%] | efficacy ([4]; application rate 100 g/ha) [%] | efficacy (laying of fertile eggs) [5] [%] | efficacy [6] [%] | logP^a) [7] | logP^a) [7, 13] | efficacy ([8]; application rate 100 g/ha) [%] | efficacy ([9]; application rate 100 g/ha) [%] | efficacy (kill) [10] [%] | efficacy [11] [%] | log P [7, 13] | logP [7] | other results |
| --- | --- | --- | --- | --- | --- | --- | --- | --- | --- | --- | --- | --- | --- | --- | --- |
| CCc1cc(C(F)(C(F)(F)F)C(F)(F)F)ccc1-n1cc(-c2ccc(Cl)c(C(=O)NC3(C#N)CC3)c2)cn1 [I-T3-38] | 100 | 100 | 90 | 100 | 100 | 80 | 4.5 | 4.5 | 100 | 100 | 100 | – | – | – | – |
| CCc1cc(C(F)(C(F)(F)F)C(F)(F)F)cc(C)c1-n1cc(-c2ccc(Cl)c(C(=O)NC3(C#N)CC3)c2)cn1 [I-T3-46] | 100 | 100 | – | – | 100 | 100 | 4.6 | 4.6 | – | – | 100 | 100 | – | – | efficacy ([3]; application rate 500 g/ha): 100%; efficacy ([4]; application rate 500 g/ha): 100%; efficacy ([8]; application rate 500 g/ha): 100%; efficacy ([9]; application rate 500 g/ha): 100% |
| O=C(NC1CC1)c1cc(-c2cnn(-c3ccc(C(F)(C(F)(F)F)C(F)(F)F)cc3C(F)(F)F)c2)ccc1Cl [I-T3-52] | 100 | 100 | – | 90 | 100 | 100 | 4.3 | 4.3 | 100 | 100 | 100 | – | – | – | – |
| CCc1cc(C(F)(F)C(F)(F)F)cc(C)c1-n1cc(-c2ccc(Cl)c(C(=O)NC3(C#N)CC3)c2)cn1 [I-T3-80] | 100 | 100 | 90 | 100 | 100 | 80 | 4.2 | 4.2 | 100 | 100 | 100 | 100 | – | – | efficacy (laying of fertile eggs) [12]: 80% |
| O=C(NC1CC1)c1cc(-c2cnn(-c3c(Cl)cc(OC(F)(F)F)cc3Cl)c2)ccc1Cl [I-T3-88] | 80 | 100 | 100 | 100 | 100 | 80 | 3.6 | 3.6 | 100 | 100 | 100 | 100 | – | – | – |
| O=C(NC1CC1)c1cc(-c2cnn(-c3ccc(OC(F)(F)F)cc3Cl)c2)ccc1Cl [I-T3-90] | 90 | 100 | – | – | 100 | 100 | 3.6 | – | – | – | 100 | – | 3.6 | – | efficacy ([4]; application rate 500 g/ha): 90%; efficacy ([8]; application rate 500 g/ha): 100%; efficacy ([9]; application rate 500 g/ha): 100% |
| COc1ncc(-c2cnn(-c3c(C)cc(C(F)(C(F)(F)F)C(F)(F)F)cc3C)c2)cc1C(=O)NC1CC1 [I-T3-143] | 100 | 100 | – | – | 100 | 80 | – | – | 100 | 100 | 100 | 100 | 4.6 | – | logP^a) ([7]; reversed-phase column (C18)): 4.6 |
| Cc1cc(C(F)(C(F)(F)F)C(F)(F)F)cc(C(F)(F)F)c1-n1cc(-c2ccc(Cl)c(C(=S)NC3CC3)c2)cn1 [I-T3-161, 2-chloro-N-cyclopropyl-5-[1-[2-methyl-4-[1,2,2,2-tetrafluoro-1-(trifluoromethyl)ethyl]-6-(trifluoromethyl)phenyl]pyrazo-4-yl]benzenecarbothioamide] | 100 | 100 | – | 100 | 100 | 100 | – | – | 100 | 100 | 100 | – | 5.0 | 5.0 | logP^a) ([7]; reversed-phase column (C18)): 5.0 |
| O=C(NC1CC1)c1cc(-c2cnn(-c3c(Cl)cc(C(F)(C(F)(F)F)C(F)(F)F)cc3OC(F)(F)F)c2)cnc1Cl [I-T3-189] | 100 | 100 | 100 | 100 | – | 100 | – | – | 100 | 100 | 100 | 100 | 4.3 | – | – |
| O=C(NC1CC1)c1cc(-c2cnn(-c3c(Cl)cc(C(F)(C(F)(F)F)C(F)(F)F)cc3OC(F)F)c2)cnc1Cl [I-T3-196] | – | – | – | – | – | 100 | – | – | – | – | – | 100 | 3.9 | – | – |
| Cc1cc(C(F)(C(F)(F)F)C(F)(F)F)cc(C)c1-c1cnn(-c2ccc(Cl)c(C(=O)NC3(C#N)CC3)c2)c1 [I-T4-2] | 100 | 100 | – | 100 | 100 | 100 | – | – | 100 | 100 | 100 | 100 | – | 4.6 | efficacy ([3]; application rate 20 g/ha): 90% |
| Cc1cc(C(F)(C(F)(F)F)C(F)(F)F)cc(C(F)(F)F)c1-c1cc(-c2cnc(Cl)c(C(=O)NC3(C#N)CC3)c2)on1 [I-T22-4] | – | – | – | 100 | 100 | 100 | – | – | 100 | – | 100 | – | – | 4.4 | efficacy (laying of fertile eggs) [12]: 100% |
| Cc1cc(C(F)(C(F)(F)F)C(F)(F)F)cc(C(F)(F)F)c1-c1cc(-c2cnc(Cl)c(C(=O)NC3CC3)c2)on1 [I-T22-6] | 90 | 100 | – | – | 100 | 100 | – | – | 100 | – | 95 | – | – | 4.5 | efficacy (laying of fertile eggs) [12]: 100% |

Source: patent publication US10150737B2, “Compounds for controlling arthropods” (priority 2013, dated 2018)
